Common to all, as to type: functional
The subject of test [1] is Hep 3B2. Kind of test: Induction of apoptosis in human Hep3B cells assessed as viable cells at 10 nM measured after 48 hrs by annexin V-FITC/Propidium iodide staining based flow cytometric analysis (reference value: 95.6%). The note with it: read-out: Activity. (In general: A flow cytometer gives signals particle by particle.)
Test [2] has as its system Hep 3B2. The test is described as follows: Induction of apoptosis in human Hep3B cells assessed as early apoptotic cells at 10 nM measured after 48 hrs by annexin V-FITC/Propidium iodide staining based flow cytometric analysis (reference value: 1.6%).
The subject of test [3] is Hep 3B2. Kind of test: Induction of apoptosis in human Hep3B cells assessed as late apoptotic cells at 10 nM measured after 48 hrs by annexin V-FITC/Propidium iodide staining based flow cytometric analysis (reference value: 2.4%).
Test [4] deals with Hep 3B2. The test is described as follows: Induction of apoptosis in human Hep3B cells assessed as necrotic cells at 10 nM measured after 48 hrs by annexin V-FITC/Propidium iodide staining based flow cytometric analysis (reference value: 0.3%).
The subject of test [5] is Hep 3B2. The test is described as follows: Induction of apoptosis in human Hep3B cells assessed as viable cells at 10 nM measured after 48 hrs in presence of gamabufotalin by annexin V-FITC/Propidium iodide staining based flow cytometric analysis (reference value: 95.6%). The note with it: read-out: Activity.
The test system of test [6] is Hep 3B2. The test is described as follows: Induction of apoptosis in human Hep3B cells assessed as early apoptotic cells at 10 nM measured after 48 hrs in presence of gamabufotalin by annexin V-FITC/Propidium iodide staining based flow cytometric analysis (reference value: 1.6%).
The test system of test [7] is Hep 3B2. Kind of test: Induction of apoptosis in human Hep3B cells assessed as late apoptotic cells at 10 nM measured after 48 hrs in presence of gamabufotalin by annexin V-FITC/Propidium iodide staining based flow cytometric analysis (reference value: 2.4%).
For test [8], the system named is Hep 3B2. The test is described as follows: Induction of apoptosis in human Hep3B cells assessed as necrotic cells at 10 nM measured after 48 hrs in presence of gamabufotalin by annexin V-FITC/Propidium iodide staining based flow cytometric analysis (reference value: 0.3%).
For test [9], the system named is Huh-7. The test is described as follows: Induction of apoptosis in human Huh-7 cells assessed as viable cells at 10 nM measured after 48 hrs by annexin V-FITC/Propidium iodide staining based flow cytometric analysis (reference value: 91.7%). The note with it: read-out: Activity.
The subject of test [10] is Huh-7. The test is described as follows: Induction of apoptosis in human Huh-7 cells assessed as early apoptotic cells at 10 nM measured after 48 hrs by annexin V-FITC/Propidium iodide staining based flow cytometric analysis (reference value: 2.2%).
The test system of test [11] is Huh-7. The test is described as follows: Induction of apoptosis in human Huh-7 cells assessed as late apoptotic cells at 10 nM measured after 48 hrs by annexin V-FITC/Propidium iodide staining based flow cytometric analysis (reference value: 6.1%).
Test [12] has as its system Huh-7. The test is described as follows: Induction of apoptosis in human Huh-7 cells assessed as necrotic cells at 10 nM measured after 48 hrs by annexin V-FITC/Propidium iodide staining based flow cytometric analysis (reference value: 0.0%).
For test [13], the system named is Huh-7. Kind of test: Induction of apoptosis in human Huh-7 cells assessed as viable cells at 10 nM measured after 48 hrs in presence of gamabufotalin by annexin V-FITC/Propidium iodide staining based flow cytometric analysis (reference value: 91.7%). The conditions noted are these: read-out: Activity.
The test system of test [14] is Huh-7. Kind of test: Induction of apoptosis in human Huh-7 cells assessed as early apoptotic cells at 10 nM measured after 48 hrs in presence of gamabufotalin by annexin V-FITC/Propidium iodide staining based flow cytometric analysis (Rvb =2.2%).
Test [15] has as its system Huh-7. The test is described as follows: Induction of apoptosis in human Huh-7 cells assessed as late apoptotic cells at 10 nM measured after 48 hrs in presence of gamabufotalin by annexin V-FITC/Propidium iodide staining based flow cytometric analysis (reference value: 6.1%).
Test [16] concerns Huh-7. The test is described as follows: Induction of apoptosis in human Huh-7 cells assessed as necrotic cells at 10 nM measured after 48 hrs in presence of gamabufotalin by annexin V-FITC/Propidium iodide staining based flow cytometric analysis (reference value: 0.0%).

The structures appear in SMILES notation. Residues, ends and D or L forms follow the SMILES beside them. *: point of attachment. Cbz = O=C(OCc1ccccc1)*; CH2F = FC*

In the case of `CC(C)[C@H](NC(=O)OCc1ccccc1)C(=O)N[C@@H](C)C(=O)N[C@@H](CC(=O)O)C(=O)CF` (Cbz-Val-Ala-Asp-CH2F), the viability at 0.01 µM in test [1] stood at 93.5%; in [5], 91.9%; in test [9] it was 90.3%; in [13], 89%. The Activity in test [2] came to 2.6%; in test [3], 3.6%; in test [4], 0.3%; in [6], 4.4%; in test [7], 3.5%; in test [8], 0.3%. Moreover, the Activity in test [10] was 2.7%; in test [11], 6.9%; in [12], 0.1%; in test [14], 3.3%; in test [15] it was 7.4%; in test [16], 0.3%.

These data come from ChEMBL document CHEMBL5257089, “Gamabufotalin Induces Apoptosis and Cytoprotective Autophagy through the mTOR Signaling Pathway in Hepatocellular Carcinoma” (J Nat Prod, 2023).
